Data as given in patent US9938562B2, “Naphthalene derived chromogenic enzyme substrates” (Glycosynth Limited, priority 2013, dated 2018).
Like-named read-outs stand apart in the source and are kept apart here.

Experiments:
[1] = test system: β-D-glucuronidase-positive strains; assay: Hydrolysis by glucuronidase-positive strains; assay type: cell-based
[2] = test system: E. faecium NCTC 7171; assay: Glucuronide screen, agar plates (CPS ID 3 or Columbia agar); assay type: cell-based; settings: E. faecium NCTC 7171, agar
[3] = test system: clinical isolates of E. coli; assay: Glucuronide sensitivity screen, agar plates (CPS ID 3 or Columbia agar); assay type: cell-based
[4] = test system: E. cloacae; assay: Glucuronide screen, agar plates (CPS ID 3 or Columbia agar); assay type: cell-based
[5] = test system: E. faecalis NCTC 775; assay: as above; assay type: cell-based; settings: E. faecalis NCTC 775, agar
[6] = test system: Candida glabrata NCPF 3943; assay: Agar plate multi-point inoculation, colour; assay type: cell-based
[7] = test system: Salmonella typhimurium NCTC 74; assay: Agar plate multi-point inoculation, colour; assay type: cell-based
[8] = test system: Candida albicans ATCC 90028; assay type: cell-based
[9] = test system: Staphylococcus aureus NCTC 6571; assay: Agar plate multi-point inoculation, colour; assay type: cell-based
[10] = test system: Providencia rettgeri NCTC 7475; assay: Agar plate multi-point inoculation, colour; assay type: cell-based
[11] = test system: Listeria monocytogenes NCTC 11994; assay: Agar plate multi-point inoculation, colour; assay type: cell-based
[12] = test system: Burkholderia cepacia NCTC 10931; assay: Agar plate multi-point inoculation, colour; assay type: cell-based; settings: Columbia agar, FAC 500 mg/L, substrate 300 mg/L, 37° C. 18 h in air
[13] = test system: Enterococcus faecium NCTC 7171; assay: Agar plate multi-point inoculation, colour; assay type: cell-based
[14] = test system: Bacillus subtilis NCTC 9372; assay: Agar plate multi-point inoculation, colour; assay type: cell-based
[15] = test system: Enterococcus faecalis NCTC 775; assay: Agar plate multi-point inoculation, colour; assay type: cell-based
[16] = test system: Acinetobacter baumannii NCTC 19606; assay: Agar plate multi-point inoculation, colour; assay type: cell-based
[17] = test system: Steptococcus pyogenes NCTC 8306; assay: Agar plate multi-point inoculation, colour; assay type: cell-based
[18] = test system: Pseudomonas aeruginosa NCTC 10662; assay: Agar plate multi-point inoculation, colour; assay type: cell-based
[19] = test system: Escherichia coli NCTC 10418; assay: Agar plate multi-point inoculation, colour; assay type: cell-based
[20] = test system: Serratia marcescens NCTC 10211; assay: Agar plate multi-point inoculation, colour; assay type: cell-based
[21] = test system: Enterobacter cloacae NCTC 11936; assay: Agar plate multi-point inoculation, colour; assay type: cell-based
[22] = test system: Staphylococcus aureus (MRSA) NCTC 11939; assay: Agar plate multi-point inoculation, colour; assay type: cell-based; settings: Columbia agar, FAC 500 mg/L, substrate 300 mg/L, 37° C. 18 h in air
[23] = test system: range of microorganisms; assay: Agar plate evaluation with a range of microorganisms (hue, diffusion, background); assay type: cell-based; settings: agar plates with FAC
[24] = test system: Yersinia enterocolitica NCTC 11176; assay: Agar plate multi-point inoculation, colour; assay type: cell-based; settings: Columbia agar, FAC 500 mg/L, substrate 300 mg/L, 37° C. 18 h in air
[25] = test system: Staphylococcus epidermidis NCTC 11047; assay: Agar plate multi-point inoculation, colour; assay type: cell-based
[26] = test system: Klebsiella pneumoniae NCTC 9528; assay: Agar plate multi-point inoculation, colour; assay type: cell-based
[27] = 100 E. coli strains, agar, 18 h incubation

COC(=O)C1OC(Oc2cc3ccccc3cc2O)C(O)C(O)C1O [Compound 13, DHN-β-D-glucuronide-6′-methyl ester]
colour after hydrolysis compared with 12a or 12b [1]: weaker

NC1CCCCC1.O=C(O)[C@H]1O[C@@H](Oc2c[nH]c3ccc(Br)c(Cl)c23)[C@H](O)[C@@H](O)[C@@H]1O [X-β-D-glucuronide CHA salt]
Colour [2]: − | % Sensitivity [3]: 79% | Colour [3]: − | Negative strains [3, 27]: 21 | Positive strains [3, 27]: 79 | Colour ([3]; E. coli 260262P, agar): Green | Colour ([3]; E. coli 260280Z, agar): Green | Colour ([3]; E. coli 260310H, agar): Green | Colour ([3]; E. coli 260313A, agar): − | Colour ([3]; E. coli 260316T, agar): − | Colour ([3]; E. coli 260327V, agar): Green | Colour ([3]; E. coli 260330Y, agar): Green | Colour ([3]; E. coli 260333P, agar): − | Colour ([3]; E. coli 260345F, agar): Green | Colour ([3]; E. coli 260348K, agar): Green | Colour ([3]; E. coli 260354W, agar): Green | Colour ([3]; E. coli 260364H, agar): − | Colour ([3]; E. coli 260370C, agar): Green | Colour ([3]; E. coli 260375E, agar): Green | Colour ([3]; E. coli 260390B, agar): − | Colour ([3]; E. coli 260396Z, agar): Green | Colour ([3]; E. coli 260398Q, agar): Green | Colour ([3]; E. coli 260399E, agar): Green | Colour ([3]; E. coli 260400N, agar): − | Colour ([3]; E. coli 260401Q, agar): Green | Colour ([3]; E. coli 260402H, agar): Green | Colour ([3]; E. coli 260404W, agar): Green | Colour ([3]; E. coli 260405P, agar): Green | Colour ([3]; E. coli 260406A, agar): − | Colour ([3]; E. coli 260406Y, agar): Green | Colour ([3]; E. coli 260407F, agar): Green | Colour ([3]; E. coli 260408C, agar): Green | Colour ([3]; E. coli 260411Z, agar): Green | Colour ([3]; E. coli 260412Q, agar): Green | Colour ([3]; E. coli 260414H, agar): Green | Colour ([3]; E. coli 260415Y, agar): Green | Colour ([3]; E. coli 260416W, agar): − | Colour ([3]; E. coli 260417P, agar): Green | Colour ([3]; E. coli 260422Y, agar): Green | Colour ([3]; E. coli 260424P, agar): Green | Colour ([3]; E. coli 260425A, agar): Green | Colour ([3]; E. coli 260426F, agar): Green | Colour ([3]; E. coli 260428T, agar): Green | Colour ([3]; E. coli 260431N, agar): Green | Colour ([3]; E. coli 260432E, agar): Green | Colour ([3]; E. coli 260433H, agar): Green | Colour ([3]; E. coli 260434Y, agar): Green | Colour ([3]; E. coli 260435W, agar): Green | Colour ([3]; E. coli 260436P, agar): Green | Colour ([3]; E. coli 260437A, agar): − | Colour ([3]; E. coli 260438F, agar): Green | Colour ([3]; E. coli 260439C, agar): Green | Colour ([3]; E. coli 260440S, agar): Green | Colour ([3]; E. coli 260441G, agar): Green | Colour ([3]; E. coli 260458Y, agar): Green | Colour ([3]; E. coli 260459W, agar): Green | Colour ([3]; E. coli 260463D, agar): Green | Colour ([3]; E. coli 260464G, agar): Green | Colour ([3]; E. coli 260471B, agar): − | Colour ([3]; E. coli 260478N, agar): − | Colour ([3]; E. coli 260479Q, agar): Green | Colour ([3]; E. coli 260480M, agar): Green | Colour ([3]; E. coli 260481J, agar): Green | Colour ([3]; E. coli 260483R, agar): − | Colour ([3]; E. coli 260485D, agar): Green | Colour ([3]; E. coli 260486L, agar): Green | Colour ([3]; E. coli 260492J, agar): Green | Colour ([3]; E. coli 260494B, agar): Green | Colour ([3]; E. coli 260495R, agar): − | Colour ([3]; E. coli 260497D, agar): Green | Colour ([3]; E. coli 260502G, agar): Green | Colour ([3]; E. coli 260503Z, agar): Green | Colour ([3]; E. coli 260504N, agar): Green | Colour ([3]; E. coli 260505Q, agar): − | Colour ([3]; E. coli 260506E, agar): Green | Colour ([3]; E. coli 260508Y, agar): Green | Colour ([3]; E. coli 260509W, agar): Green | Colour ([3]; E. coli 260510R, agar): Green | Colour ([3]; E. coli 260511X, agar): Green | Colour ([3]; E. coli 260514G, agar): − | Colour ([3]; E. coli 260515Z, agar): − | Colour ([3]; E. coli 260521S, agar): Green | Colour ([3]; E. coli 260522Z, agar): Green | Colour ([3]; E. coli 260532S, agar): Green | Colour ([3]; E. coli 260533G, agar): Green | Colour ([3]; E. coli 260536Q, agar): Green | Colour ([3]; E. coli 260537E, agar): − | Colour ([3]; E. coli 260538H, agar): − | Colour ([3]; E. coli 260539Y, agar): Green | Colour ([3]; E. coli 260541R, agar): Green | Colour ([3]; E. coli 260545G, agar): Green | Colour ([3]; E. coli 260547N, agar): Green | Colour ([3]; E. coli 260548Q, agar): Green | Colour ([3]; E. coli 260549E, agar): Green | Colour ([3]; E. coli 260553X, agar): − | Colour ([3]; E. coli 260554D, agar): Green | Colour ([3]; E. coli 260555L, agar): Green | Colour ([3]; E. coli 260563B, agar): Green | Colour ([3]; E. coli 260564R, agar): Green | Colour ([3]; E. coli 260578D, agar): − | Colour ([3]; E. coli 2603121P, agar): − | Colour ([4]; E. cloacae 260329R, agar): − | Colour ([4]; E. cloacae NCTC 11936, agar): − | Colour [5]: −

DHN-6-sulfonic acid-β-D-galactopyranoside sodium salt [Compound 31]
Colour [6]: − | Colour [7]: − | Colour [8]: − | Colour [9]: − | Colour [10]: + | Colour [11]: − | Colour [12]: − | amount dissolved in water: 30 mg | Colour [13]: − | Colour [14]: − | Colour [15]: − | Colour [16]: − | Colour [17]: − | Colour [18]: − | Colour [19]: + | Colour [20]: − | Colour [21]: + | Colour [22]: − | colour (hue) after hydrolysis [23]: purple to maroon colonies | Colour [24]: − | Colour [25]: − | Colour [26]: −
